Laboratory results reported in patent US9079907B2, “Fused heterocyclic compound and use thereof” (TAKEDA PHARMACEUTICAL COMPANY LIMITED, priority 2006, dated 2015).
Where a name gives a salt, the structure may show the parent alone.

Tests used:
[1] = biological target: serotonin 5-HT2C receptor (isoform type VSV, stably expressing CHO cell) (Homo sapiens, UniProt P28335, I156V/I160V/N158S); assay: cell-based; conditions: for Emax: CHO, read-out: ratio to maximum response by 5-HT, read-out: ratio to maximum response by 5-HT (1 μM)
[2] = system: female spinal cord-transected rats with bilaterally transected hypogastric nerve and pudendal nerve; assay: Reflex urethral closure response induced by increased intravesical pressure, with hypogastric and pudendal nerves bilaterally transected; conditions: for urethral closure response (cmH2O) after drug administration: 10 min after administration; for urethral closure response (cmH2O) after drug administration / urethral closure response (cmH2O) before drug administration: intravesical pressure raised to 50 cmH2O, mean ± SEM, n = 5; for action on the urethral closure response induced by the increased intravesical pressure (in words): i.v., female spinal cord-transected rats with hypogastric and pudendal nerves bilaterally transected
Method: Female SD rats (body weight 200-310 g) were anesthetized with urethane (Wako Pure Chemical Industries, Ltd.), and the spinal cord was transected at T8-9 level to eliminate the micturition reflex. During the operation, halothane (Takeda Pharmaceutical Company Limited) anesthesia was added when necessary. After abdominal section, bladder neck was ligated with a suture thread, and then the hypogastric nerve and pudendal nerve were bilaterally transected. A catheter (PE-90, Clay Adams) was placed in the bladder, and the other end of the bladder catheter was connected to a pressure transducer and a water reservoir (60 ml syringe) of saline via a three-way cock. A microchip transducer catheter (SPR-524, Millar Instruments Inc.) was inserted toward the bladder from the urethral opening, and adjusted using a scale on the catheter surface so that the transducer part is positioned in the urinary tract at 10.0-15.0 mm from the urethral opening.
The changes in the topical pressure within the urinary tract (hereinafter conveniently indicated as urethral internal pressure) as measured by the microchip transducer was transmitted to a computer via an amplifier (blood pressure amplification unit AP-641G; NIHON KOHDEN) and an analog-to-digital converter (MP-100; biopack; sampled at 500 Hz), and recorded on a hard disc. […] The reaction of the urinary tract induced by an increased intravesical pressure was measured 3 times, and the average of the last 2 measures was taken as the value before drug administration. The evaluation item was reflex urethral closure response, and the recorded values were subjected to smoothing process at 500 points to calculate an average urethral internal pressure per 1 sec, after which the value immediately before increase of the intravesical pressure was subtracted from the maximum value on increase of the intravesical pressure and taken as the urethral closure response. […] The drugs were all dissolved in N,N-dimethylformamide/polyethylene glycol 400 (1:1) and administered intravenously at a dose of 0.5 ml/kg.

[3] = baseline of the 1 mg/kg i.v. group

Sequence of serotonin 5-HT2C receptor (isoform type VSV, stably expressing CHO cell) (P28335 33-458 I156V/N158S/I160V limits assumed): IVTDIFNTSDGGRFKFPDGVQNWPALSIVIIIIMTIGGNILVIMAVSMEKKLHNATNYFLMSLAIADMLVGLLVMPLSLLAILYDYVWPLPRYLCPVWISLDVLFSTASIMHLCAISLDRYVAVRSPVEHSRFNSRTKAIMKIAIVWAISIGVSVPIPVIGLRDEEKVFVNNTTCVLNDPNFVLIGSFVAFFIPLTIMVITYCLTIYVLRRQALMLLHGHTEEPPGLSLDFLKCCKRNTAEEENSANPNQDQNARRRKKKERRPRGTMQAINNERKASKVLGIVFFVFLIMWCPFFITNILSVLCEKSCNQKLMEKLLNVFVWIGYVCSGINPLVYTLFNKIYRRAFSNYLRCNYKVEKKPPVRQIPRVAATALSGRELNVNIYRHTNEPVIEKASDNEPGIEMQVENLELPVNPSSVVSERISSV

SMILES	Emax [1]	further results
C[C@@H]1CNCc2ccc(N3CCOCC3)nc2O1 [Example 130, (+)-2-methyl-8-morpholin-4-yl-2,3,4,5-tetrahydropyrido[3,2-f][1,4]oxazepine]	105%	
C[C@H]1CNCc2ccc(N3CCOCC3)nc2O1 [Example 131, (−)-2-methyl-8-morpholin-4-yl-2,3,4,5-tetrahydropyrido[3,2-f][1,4]oxazepine]	94.2%	
c1ccc(CCCCN2CCN(c3ccc4c(n3)OCCNC4)CC2)cc1 [Example 67, 8-[4-(4-phenylbutyl)piperazin-1-yl]-2,3,4,5-tetrahydropyrido[3,2-f][1,4]oxazepine tris(trifluoroacetate)]	124%	
c1cc2c(nc1C1CCC1)OCCNC2 [Example 211, 8-cyclobutyl-2,3,4,5-tetrahydropyrido[3,2-f][1,4]oxazepine dihydrochloride]	98%	
c1cc2c(nc1N1CCOCC1)OCCNC2 [Example 148, 8-morpholin-4-yl-2,3,4,5-tetrahydropyrido[3,2-f][1,4]oxazepine monohydrobromide]		ratio to maximum response by 5-HT (1 μM) ([1]; monohydrobromide): 93.5%
CC(C)(C)OC(=O)N1CCN(c2ccc3c(n2)OCCNC3)CC1 [Example 30, tert-butyl 4-(2,3,4,5-tetrahydropyrido[3,2-f][1,4]oxazepin-8-yl)piperazine-1-carboxylate]	99.4%	
c1cc2c3c(c1)[C@H]1CCC[C@H]1N3CCNC2 [WAY-163909]		urethral closure response (cmH2O) after drug administration ([2]; 3 mg/kg i.v.): 10.2 ± 1.6 cmH2O; urethral closure response (cmH2O) before drug administration ([2]; baseline of the 3 mg/kg i.v. group): 4.4 ± 0.8 cmH2O; action on the urethral closure response induced by the increased intravesical pressure (in words) [2]: enhanced the urethral closure response
CC(C)(C)OC(=O)N1CCN(c2nc3c(cc2F)CNCCO3)CC1 [Example 122, tert-butyl 4-(7-fluoro-2,3,4,5-tetrahydropyrido[3,2-f][1,4]oxazepin-8-yl)piperazine-1-carboxylate]	110%	
c1cc2c(nc1C1CC1)OCCNC2 [Example 210, 8-cyclopropyl-2,3,4,5-tetrahydropyrido[3,2-f][1,4]oxazepine dihydrochloride]	108%	
COC(=O)c1ccc(-c2ccc3c(n2)OCCNC3)cc1 [Example 102, methyl 4-(2,3,4,5-tetrahydropyrido[3,2-f][1,4]oxazepin-8-yl)benzoate bis(trifluoroacetate)]	91.3%	
CC(C)N(C)c1ccc2c(n1)OCCNC2 [Example 177, N-isopropyl-N-methyl-2,3,4,5-tetrahydropyrido[3,2-f][1,4]oxazepin-8-amine]	91.5%	
CCN(CC)c1ccc2c(n1)OCCNC2 [Example 44, N,N-diethyl-2,3,4,5-tetrahydropyrido[3,2-f][1,4]oxazepin-8-amine bis(trifluoroacetate)]	95.1%	
c1cc(-c2ccc3c(n2)OCCNC3)co1 [Example 112, 8-(3-furyl)-2,3,4,5-tetrahydropyrido[3,2-f][1,4]oxazepine bis(trifluoroacetate)]	93%	
CCC(C)N(C)c1ccc2c(n1)OCCNC2 (centres unmarked) [Example 171, N-(sec-butyl)-N-methyl-2,3,4,5-tetrahydropyrido[3,2-f][1,4]oxazepin-8-amine monohydrobromide]	99.6%	
Clc1ccc(-c2ccc3c(n2)OCCNC3)cc1 [Example 79, 8-(4-chlorophenyl)-2,3,4,5-tetrahydropyrido[3,2-f][1,4]oxazepine]	91.1%	
CCC(C)N(C)c1ccc2c(n1)OCCNC2 (centres unmarked) [Example 172, N-(sec-butyl)-N-methyl-2,3,4,5-tetrahydropyrido[3,2-f][1,4]oxazepin-8-amine monohydrochloride]		ratio to maximum response by 5-HT (1 μM) ([1]; monohydrochloride): 95.3%
Br.CC1CCC(C)N1c1ccc2c(n1)OCCNC2 (centres unmarked) [Example 156, 8-(2,5-dimethylpyrrolidin-1-yl)-2,3,4,5-tetrahydropyrido[3,2-f][1,4]oxazepine monohydrobromide]		ratio to maximum response by 5-HT (1 μM) [1]: 93.4%
c1cc2c(nc1N1CCCCC1)OCCNC2 [Example 40, 8-piperidin-1-yl-2,3,4,5-tetrahydropyrido[3,2-f][1,4]oxazepine]	80.8%	
CCC(C)N(C)c1ccc2c(n1)OCCNC2 (centres unmarked) [Example 173, N-(sec-butyl)-N-methyl-2,3,4,5-tetrahydropyrido[3,2-f][1,4]oxazepin-8-amine dihydrochloride]		ratio to maximum response by 5-HT (1 μM) ([1]; dihydrochloride): 95.1%

SMILES	Emax [1]	further results
CC1CNCc2ccc(N3CCOCC3)nc2O1 (centres unmarked) [Example 128, 2-methyl-8-morpholin-4-yl-2,3,4,5-tetrahydropyrido[3,2-f][1,4]oxazepine]	107%	
CC(C)N(C)c1ccc2c(n1)OCCNC2 [Example 178, N-isopropyl-N-methyl-2,3,4,5-tetrahydropyrido[3,2-f][1,4]oxazepin-8-amine monohydrobromide]		ratio to maximum response by 5-HT (1 μM) ([1]; monohydrobromide): 94.6%
c1cc2c(nc1C1CCCC1)OCCNC2 [Example 212, 8-cyclopentyl-2,3,4,5-tetrahydropyrido[3,2-f][1,4]oxazepine dihydrochloride]	91.9%	
CC1CNCc2ccc(N3CCN(C(=O)OC(C)(C)C)CC3)nc2O1 (centres unmarked) [Example 126, tert-butyl 4-(2-methyl-2,3,4,5-tetrahydropyrido[3,2-f][1,4]oxazepin-8-yl)piperazine-1-carboxylate]	109%	
Fc1ccc(-c2ccc3c(n2)OCCNC3)cc1 [Example 81, 8-(4-fluorophenyl)-2,3,4,5-tetrahydropyrido[3,2-f][1,4]oxazepine bis(trifluoroacetate)]	92.1%	
CC1CNCc2ccc(N3CCCCC3)nc2O1 (centres unmarked) [Example 129, 2-methyl-8-piperidin-1-yl-2,3,4,5-tetrahydropyrido[3,2-f][1,4]oxazepine]	111%	
c1cc2c(nc1N1CCOCC1)OCCNC2 [Example 147, 8-morpholin-4-yl-2,3,4,5-tetrahydropyrido[3,2-f][1,4]oxazepine monohydrochloride]	93.9%	
c1cc2c(nc1N1CCCCCC1)OCCNC2 [Example 46, 8-azepan-1-yl-2,3,4,5-tetrahydropyrido[3,2-f][1,4]oxazepine bis(trifluoroacetate)]	100%	
c1ccc(CCN2CCN(c3ccc4c(n3)OCCNC4)CC2)cc1 [Example 58, 8-[4-(2-phenylethyl)piperazin-1-yl]-2,3,4,5-tetrahydropyrido[3,2-f][1,4]oxazepine tris(trifluoroacetate)]	87.1%	
CSc1ccc(-c2ccc3c(n2)OCCNC3)cc1 [Example 96, 8-[4-(methylthio)phenyl]-2,3,4,5-tetrahydropyrido[3,2-f][1,4]oxazepine bis(trifluoroacetate)]	90.3%	
c1cc2c(nc1N1CCCC1)OCCNC2 [Example 43, 8-pyrrolidin-1-yl-2,3,4,5-tetrahydropyrido[3,2-f][1,4]oxazepine bis(trifluoroacetate)]	97%	
CC(C)c1ccc2c(n1)OCCNC2 [Example 205, 8-isopropyl-2,3,4,5-tetrahydropyrido[3,2-f][1,4]oxazepine dihydrochloride]	93.5%	
C[C@H]1CNCCc2ccc(Cl)cc21.Cl [APD-356]		urethral closure response (cmH2O) after drug administration ([2]; 1 mg/kg i.v.): 8.6 ± 2.7 cmH2O; urethral closure response (cmH2O) before drug administration [2, 3]: 5.3 ± 1.7 cmH2O; action on the urethral closure response induced by the increased intravesical pressure (in words) [2]: enhanced the urethral closure response
CC1CCCCN1c1ccc2c(n1)OCCNC2 (centres unmarked) [Example 49, 8-(2-methylpiperidin-1-yl)-2,3,4,5-tetrahydropyrido[3,2-f][1,4]oxazepine bis(trifluoroacetate)]	89.5%	
CC1CCC(C)N1c1ccc2c(n1)OCCNC2 (centres unmarked) [Example 155, 8-(2,5-dimethylpyrrolidin-1-yl)-2,3,4,5-tetrahydropyrido[3,2-f][1,4]oxazepine]	85.4%	
c1cc2c(nc1C1CCCC1)OCCNC2 [Example 213, 8-cyclopentyl-2,3,4,5-tetrahydropyrido[3,2-f][1,4]oxazepine]		ratio to maximum response by 5-HT (1 μM) [1]: 96.6%
FC(F)(F)Oc1ccc(-c2ccc3c(n2)OCCNC3)cc1 [Example 104, 8-[4-(trifluoromethoxy)phenyl]-2,3,4,5-tetrahydropyrido[3,2-f][1,4]oxazepine bis(trifluoroacetate)]	94.6%	
c1cc2c(nc1N1CCOCC1)OCCNC2 [Example 41, 8-morpholin-4-yl-2,3,4,5-tetrahydropyrido[3,2-f][1,4]oxazepine]		ratio to maximum response by 5-HT (1 μM) [1]: 83.0%; urethral closure response (cmH2O) after drug administration ([2]; 1 mg/kg i.v.): 7.5 ± 1.6 cmH2O; urethral closure response (cmH2O) before drug administration [2, 3]: 4.6 ± 0.8 cmH2O; action on the urethral closure response induced by the increased intravesical pressure (in words) [2]: enhanced the urethral closure response
